The text below walks through data of patent US10752587B2, “Homobispiperidinyl derivatives as liver X receptor beta agonists, compositions and their use” (Merck Sharp & Dohme Corp., priority 2015, dated 2020).

Structures are written as SMILES.

Assay [1] has as its target T1, glutathione-S-transferase (GST) tagged LXRbeta LBD (ligand binding domain) (Homo sapiens, UniProt P55055).
T1 construct: purchased Invitrogen pv4658.pps
T1 sequence (P55055 222-460 limits assumed): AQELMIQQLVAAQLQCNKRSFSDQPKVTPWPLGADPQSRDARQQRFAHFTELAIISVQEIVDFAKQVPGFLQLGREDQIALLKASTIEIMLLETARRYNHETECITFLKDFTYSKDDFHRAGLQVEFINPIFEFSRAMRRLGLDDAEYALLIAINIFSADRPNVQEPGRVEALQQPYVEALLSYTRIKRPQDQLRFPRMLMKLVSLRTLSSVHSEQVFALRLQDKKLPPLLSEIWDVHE
The experiment in a line: LanthaScreen TR-FRET Liver X Receptor Coactivator Assay, co-activator recruitment to LXRbeta LBD. It counts as biochemical. The settings on record: for Emax: efficacy at max dose, in relation to reference dual agonist T0901317, read-out: LXR beta Activity @ max dose (%); for EC50: potency (Inflection Point, IP), co-activator recruitment to LXRbeta LBD, in relation to T0901317, read-out: LXR beta IP. The method in brief:
(§1)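 TR-FRET coactivator recruitment; compound + LBD, then fluorescein-coactivator peptide/Tb-anti-GST Ab mix; RT incubation; IP and Emax vs T0901317.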
(Time-resolved FRET reads energy transfer from a long-lived donor to a nearby acceptor.)

Assay [2] concerns the target T2, glutathione-S-transferase (GST) tagged LXRalpha LBD (ligand binding domain) (Homo sapiens, UniProt Q13133).
T2 construct: purchased Invitrogen pv4655
T2 sequence (Q13133 209-447 limits assumed): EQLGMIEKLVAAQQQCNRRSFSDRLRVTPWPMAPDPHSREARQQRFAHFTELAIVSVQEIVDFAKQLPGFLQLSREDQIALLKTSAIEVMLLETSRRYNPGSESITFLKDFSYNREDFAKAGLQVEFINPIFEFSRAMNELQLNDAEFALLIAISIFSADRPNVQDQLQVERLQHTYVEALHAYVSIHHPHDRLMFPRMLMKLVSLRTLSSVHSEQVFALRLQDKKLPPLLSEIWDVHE
The experiment in a line: LanthaScreen TR-FRET Liver X Receptor Coactivator Assay, co-activator recruitment to LXRalpha LBD. It is filed as biochemical. The settings on record: for Emax: efficacy at max dose, in relation to reference dual agonist T0901317, read-out: LXR alpha Activity @ max dose (%); for EC50 / LXR alpha IP (nM): potency (Inflection Point, IP), co-activator recruitment to LXRalpha LBD, in relation to T0901317; for EC50: read-out: LXR alpha IP. The procedure, abridged:
as §1

Take `Cc1cc(N2CCC(CC3(C)CCN(C(=O)[C@](O)(c4cc(F)cc(Cl)c4)C(F)(F)F)CC3)CC2)ccc1C(=O)N(C)C` [Example 2-75, 4-[4-({1-[(2R)-2-(3-chloro-5-fluorophenyl)-3,3,3-trifluoro-2-hydroxy-propanoyl]-4-methylpiperidin-4-yl}methyl)piperidin-1-yl]-N,N,2-trimethyl-benzamide]: in assay [1], the Emax was 80% and the EC50 turned out to be 12 nM. Further, in assay [2], the Emax was 31% and the EC50 amounted to 167 nM.
Turning to `Cc1cc(N2CCC(CC3(C)CCN(C(=O)[C@](O)(c4cccc(Cl)c4)C(F)(F)F)CC3)CC2)ccc1C(=O)N(C)C` [Example 2-76, 4-[4-({1-[(2R)-2-(3-chloro-phenyl)-3,3,3-trifluoro-2-hydroxy-propanoyl]-4-methylpiperidin-4-yl}methyl)piperidin-1-yl]-N,N,2-trimethyl-benzamide], in assay [1], the Emax came out at 46% and the EC50 is 14 nM. For the same compound, in assay [2], the Emax was 4% and the “LXR alpha IP (nM)” value is listed as “NO IP”.
For `Cc1cc(N2CCC(CC3(C)CCN(C(=O)[C@](O)(c4cccc(OC(C)C)c4)C(F)(F)F)CC3)CC2)ccc1C(=O)N(C)C` [Example 2-77, N,N,2-trimethyl-4-{4-[(4-methyl-1-{(2R)-3,3,3-trifluoro-2-hydroxy-2-[3-(1-methylethoxy)phenyl]propanoyl}piperidin-4-yl)methyl]piperidin-1-yl}benzamide] the same measures were 44%, 45 nM, 2% and “NO IP”.
As to `CCc1cccc([C@@](O)(C(=O)N2CCC(C)(CC3CCN(c4ccc(C(=O)N(C)C)c(C)c4)CC3)CC2)C(F)(F)F)c1` [Example 2-78, 4-[4-({1-[(2R)-2-(3-ethylphenyl)-3,3,3-trifluoro-2-hydroxy-propanoyl]-4-methylpiperidin-4-yl}methyl)piperidin-1-yl]-N,N,2-trimethyl-benzamide], in assay [1], the Emax was found to be 20% and the EC50 amounted to 32 nM. Further, in assay [2], the Emax came out at 1% and the “LXR alpha IP (nM)” value is reported as “NO IP”.
On the same counts, the results for `CCOc1cccc([C@@](O)(C(=O)N2CCC(C)(CC3CCN(c4ccc(C(=O)N(C)C)c(C)c4)CC3)CC2)C(F)(F)F)c1` [Example 2-79, 4-[4-({1-[(2R)-2-(3-ethoxy-phenyl)-3,3,3-trifluoro-2-hydroxy-propanoyl]-4-methylpiperidin-4-yl}methyl)piperidin-1-yl]-N,N,2-trimethyl-benzamide] are 30%, 40 nM, 0% and “NO IP”.
On the same counts, the results for `COc1cccc([C@@](O)(C(=O)N2CCC(C)(CC3CCN(c4ccc(C(=O)N(C)C)c(C)c4)CC3)CC2)C(F)(F)F)c1` [Example 2-80, N,N,2-trimethyl-4-[4-({4-methyl-1-[(2R)-3,3,3-trifluoro-2-hydroxy-2-(3-methoxyphenyl)propanoyl]piperidin-4-yl}methyl)piperidin-1-yl]benzamide] are 19%, 19 nM, 0% and “NO IP”.
Consider `Cc1cc(N2CCC(CC3CN(C(=O)[C@](O)(c4cc(F)cc(Cl)c4)C(F)(F)F)C3)CC2)ccc1C(=O)N(C)C` [Example 2-81, 4-[4-({1-[(2R)-2-(3-chloro-5-fluorophenyl)-3,3,3-trifluoro-2-hydroxy-propanoyl]azetidin-3-yl}methyl)piperidin-1-yl]-N,N,2-trimethyl-benzamide], for which, in assay [1], the Emax amounted to 103% and the EC50 was 39 nM. Also, in assay [2], the Emax is 40% and the EC50 is 798 nM.
As to `CC(C)Oc1cccc(C(O)(C(=O)N2CCC(CC3CCN(c4ccc(C(=O)N(C)C)c(Cl)c4)CC3)CC2)C(F)(F)F)c1` (centres unmarked) [Example 2-82, 2-chloro-N,N-dimethyl-4-{4-[(1-{3,3,3-trifluoro-2-hydroxy-2-[3-(1-methyl-ethoxy)phenyl]propanoyl}piperidin-4-yl)methyl]piperidin-1-yl}benzamide], in assay [1], the Emax is 50% and the EC50 was found to be 12 nM. In addition, in assay [2], the Emax worked out at 13% and the “LXR alpha IP (nM)” value was “NO IP”.
As for `CN(C)C(=O)c1ccc(N2CCC(CC3CCN(C(=O)[C@](O)(c4cccc(Br)c4)C(F)(F)F)CC3)CC2)cc1Cl` [Example 2-83, 4-[4-({1-[(2R)-2-(3-bromo-phenyl)-3,3,3-trifluoro-2-hydroxy-propanoyl]piperidin-4-yl}methyl)piperidin-1-yl]-2-chloro-N,N-dimethyl-benzamide], in assay [1], the Emax is 68% and the EC50 was determined as 4 nM. Further, in assay [2], the Emax worked out at 26% and the EC50 is 83 nM.
Turning to `CN(C)C(=O)c1ccc(N2CCC(CC3CCN(C(=O)[C@](O)(c4cccc(F)c4)C(F)(F)F)CC3)CC2)cc1Cl` [Example 2-84, 2-chloro-N,N-dimethyl-4-[4-({1-[(2R)-3,3,3-trifluoro-2-(3-fluoro-phenyl)-2-hydroxy-propanoyl]piperidin-4-yl}methyl)piperidin-1-yl]benzamide], in assay [1], the Emax was determined as 83% and the EC50 was found to be 7 nM. Also, in assay [2], the Emax came to 38% and the EC50 was 140 nM.
For `CN(C)C(=O)c1ccc(N2CCC(CC3CCN(C(=O)[C@](O)(c4ccccc4F)C(F)(F)F)CC3)CC2)cc1Cl` [Example 2-85, 2-chloro-N,N-dimethyl-4-[4-({1-[(2R)-3,3,3-trifluoro-2-(2-fluorophenyl)-2-hydroxy-propanoyl]piperidin-4-yl}methyl)piperidin-1-yl]benzamide] the same measures were 68%, 17 nM, 21% and 554 nM.
For `CN(C)C(=O)c1ccc(N2CCC(CC3CCN(C(=O)[C@](O)(c4cccc(Cl)c4)C(F)(F)F)CC3)CC2)cc1Cl` [Example 2-86, 2-chloro-4-[4-({1-[(2R)-2-(3-chloro-phenyl)-3,3,3-trifluoro-2-hydroxy-propanoyl]piperidin-4-yl}methyl)piperidin-1-yl]-N,N-dimethyl-benzamide] the same measures were 68%, 6 nM, 22% and 98 nM.
In the case of `CN(C)C(=O)c1ccc(N2CCC(CC3CCN(C(=O)[C@](O)(c4cccc(O)c4)C(F)(F)F)CC3)CC2)cc1Cl` [Example 2-87, 2-chloro-N,N-dimethyl-4-[4-({1-[(2R)-3,3,3-trifluoro-2-hydroxy-2-(3-hydroxyphenyl)propanoyl]piperidin-4-yl}methyl)piperidin-1-yl]benzamide], in assay [1], the Emax turned out to be 74% and the EC50 is 19 nM. In assay [2], the Emax came out at 14% and the “LXR alpha IP (nM)” value is “NO IP”.
As for `CN(C)C(=O)c1ccc(N2CCC(CC3CCN(C(=O)[C@](O)(c4cccc(C#N)c4)C(F)(F)F)CC3)CC2)cc1Cl` [Example 2-88, 2-chloro-4-[4-({1-[(2R)-2-(3-cyanophenyl)-3,3,3-trifluoro-2-hydroxy-propanoyl]piperidin-4-yl}methyl)piperidin-1-yl]-N,N-dimethyl-benzamide], in assay [1], the Emax turned out to be 79% and the EC50 amounted to 11 nM. Also, in assay [2], the Emax is 29% and the EC50 worked out at 137 nM.
